Legend:
[1] = tested on: GFP-labeled cholinergic neurons; test: outgrowth of GFP-labeled cholinergic neurons in vivo in C. elegans; details: for outgrowth activity of GFP-labeled cholinergic neurons: control 0.2% DMSO in M9 buffer, compared with dibutyryl cAMP
Description: (§1) Control: 0.2% DMSO in M9 buffer. […] Additionally, several analogs were prepared and their biological activity was measured.

SUCNR1 = target: T1, SUCNR1 (Homo sapiens, UniProt Q9BXA5); test: modulation of SUCNR1 when administered with sodium succinate; type: cell-based; details: compared to sodium succinate alone
T1 sequence (Q9BXA5 1-334): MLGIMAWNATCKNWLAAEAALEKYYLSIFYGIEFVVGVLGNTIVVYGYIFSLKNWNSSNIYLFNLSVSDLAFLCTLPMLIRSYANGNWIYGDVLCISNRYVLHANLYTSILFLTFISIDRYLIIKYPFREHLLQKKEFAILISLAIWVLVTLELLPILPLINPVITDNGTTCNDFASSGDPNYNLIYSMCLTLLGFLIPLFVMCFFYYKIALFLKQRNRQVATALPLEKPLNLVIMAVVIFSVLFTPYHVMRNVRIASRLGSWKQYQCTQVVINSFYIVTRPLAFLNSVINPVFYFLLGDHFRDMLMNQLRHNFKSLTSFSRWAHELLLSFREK
Description: The values are compared to 100% activation by sodium succinate.
as §1

semaphorin 3A (Sema3A) = target: T2, semaphorin 3A (Sema3A) (Homo sapiens, UniProt Q14563); details: read-out: Sema3A inhibitory activity IC50 (converted); cited from earlier work
T2 sequence (Q14563 21-771): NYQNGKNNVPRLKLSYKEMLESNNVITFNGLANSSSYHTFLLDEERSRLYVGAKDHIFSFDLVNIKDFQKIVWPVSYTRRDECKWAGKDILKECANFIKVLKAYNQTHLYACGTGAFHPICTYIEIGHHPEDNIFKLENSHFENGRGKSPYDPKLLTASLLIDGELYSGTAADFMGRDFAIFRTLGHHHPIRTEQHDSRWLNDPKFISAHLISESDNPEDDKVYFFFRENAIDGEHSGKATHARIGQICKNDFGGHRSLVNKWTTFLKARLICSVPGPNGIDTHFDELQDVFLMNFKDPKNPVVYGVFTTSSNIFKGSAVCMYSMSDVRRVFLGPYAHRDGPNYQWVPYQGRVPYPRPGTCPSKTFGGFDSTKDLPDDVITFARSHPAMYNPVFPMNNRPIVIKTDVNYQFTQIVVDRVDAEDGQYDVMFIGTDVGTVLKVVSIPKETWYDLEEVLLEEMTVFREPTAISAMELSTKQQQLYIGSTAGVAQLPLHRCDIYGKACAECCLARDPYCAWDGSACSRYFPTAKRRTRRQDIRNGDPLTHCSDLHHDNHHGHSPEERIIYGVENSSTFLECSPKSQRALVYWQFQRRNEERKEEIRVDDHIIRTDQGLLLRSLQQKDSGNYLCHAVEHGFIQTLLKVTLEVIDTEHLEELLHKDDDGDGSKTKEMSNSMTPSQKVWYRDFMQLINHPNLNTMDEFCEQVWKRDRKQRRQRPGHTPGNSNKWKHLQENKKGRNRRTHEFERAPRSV

[2] = at concentrations >1000 times the effective dose; cited from earlier work

SMILES | promotes branching in % of animals ([1]; at 2 mM) | Dose ratio (SUCNR1) | efficacy value (SUCNR1) | IC50 (semaphorin 3A (Sema3A)) | cytotoxicity effects [2] | outgrowth activity of GFP-labeled cholinergic neurons [1]
CCCC(=O)Nc1ncnc2c1ncn2[C@@H]1O[C@@H]2COP(=O)(O)O[C@H]2[C@H]1OC(=O)CCC [dibutyryl cAMP, reference compound] | 36% |  |  |  |  | 
CC(=O)c1cc2c(=O)c3c(C(=O)O)c(O)c(O)cc3oc2c(C(C)=O)c1-c1coc2cc(O)c(O)c(C(=O)O)c2c1=O [vinaxanthone, 5,7-diacetyl-6-(5-carboxy-6,7-dihydroxy-4-oxo-4H-chromen-3-yl)-2,3-dihydroxy-9-oxo-9H-xanthene-1-carboxylic acid] |  | 0.33 | 230% | 173 nM | no observable cytotoxicity effects | comparable to dibutyryl cAMP
CC(=O)c1c(C)c(/C(O)=C2\COc3cc(O)c(O)c(C(=O)O)c3C2=O)cc2c(=O)c3c(C(=O)O)c(O)c(O)cc3oc12 [xanthofulvin] |  | 0.32 | 222% |  |  | comparable to dibutyryl cAMP

Reference: patent publication US20160185745A1, “ANALOGS OF VINAXANTHONE AND XANTHOFULVIN, METHODS OF SYNTHESIS, AND METHODS OF TREATMENTS THEREOF” (BOARD OF REGENTS, THE UNIVERSITY OF TEXAS SYSTEM, priority 2013, published 2016)
